Experimental data from ChEMBL document CHEMBL4616699, “Characterization of Specific N-α-Acetyltransferase 50 (Naa50) Inhibitors Identified Using a DNA Encoded Library” (ACS Med Chem Lett, 2020).

Tests used:
[1] = Dissociation constant, pKa of compound; format: physicochemical
[2] = target: T1, N-alpha-acetyltransferase 50 (Homo sapiens) (UniProt Q9GZZ1)
T1 sequence (whole entry): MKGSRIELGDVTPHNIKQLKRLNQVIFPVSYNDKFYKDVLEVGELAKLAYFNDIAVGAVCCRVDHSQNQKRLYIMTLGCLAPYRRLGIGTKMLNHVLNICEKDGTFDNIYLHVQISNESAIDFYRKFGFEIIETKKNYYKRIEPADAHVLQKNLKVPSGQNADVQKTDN
Description: Binding affinity to full length human N-terminal His-tagged/GST-tagged Naa50 expressed in Escherichia coli BL21(DE3) cells assessed as half life for dissociation by SPR analysis

[3] = target: T2, N-alpha-acetyltransferase 50 (Homo sapiens, UniProt Q9GZZ1); assay: Binding affinity to full length human N-terminal His-tagged/GST-tagged Naa50 expressed in Escherichia coli BL21(DE3) cells in by SPR analysis
T2 sequence (Q9GZZ1 whole entry): T1 sequence (whole entry)

| pKa [1] | T1/2 [2] | Kd [3] | SMILES |
| --- | --- | --- | --- |
| 3.6 |  |  | Cc1csc([C@@H]2C[C@H](NC(=O)[C@@H]3CC(=O)N(C)C(=O)N3)CN2C(=O)c2ccc(C(=O)O)cc2)n1 |
| 3.7 |  |  | Cc1csc([C@@H]2C[C@H](NC(=O)[C@@H]3CC(=O)N(C)C(=O)N3)CN2C(=O)c2ccc(-c3nn[nH]n3)cc2)n1 |
| 8.9 |  |  | Cc1csc([C@@H]2C[C@H](NC(=O)[C@@H]3CC(=O)N(C)C(=O)N3)CN2C(=O)c2ccc(-c3nnc[nH]3)cc2)n1 |
|  | 0.4 min | 0.156 µM | CC(C)(COP(=O)(O)OP(=O)(O)OC[C@H]1O[C@@H](n2cnc3c(N)ncnc32)[C@H](O)[C@@H]1OP(=O)(O)O)[C@@H](O)C(=O)NCCC(=O)NCCS [COENZYME_A] |
| 4 |  |  | CNC(=O)c1csc([C@@H]2C[C@H](NC(=O)[C@@H]3CC(=O)N(C)C(=O)N3)CN2C(=O)c2ccc(-c3nn[nH]n3)cc2)n1 |
|  | 4 min | 0.0176 µM | CC(=O)SCCNC(=O)CCNC(=O)[C@H](O)C(C)(C)COP(=O)(O)OP(=O)(O)OC[C@H]1O[C@@H](n2cnc3c(N)ncnc32)[C@H](O)[C@@H]1OP(=O)(O)O |
